Reference: publication PMC11239673, “Structural basis for the bi-specificity of USP25 and USP28 inhibitors” (EMBO Reports, 2024)
Changes are numbered by the printed parent chain. Where “and” joins values, the source holds several entries; their conditions need not be identical. Equal values may be shown once.

Columns and labels:
USP25Δtip WT = biological target: T1, USP25Δtip WT (Homo sapiens, UniProt Q9UHP3, A536G/DEL465-477/DEL482-535/P478G/P537S); test: Ub-Rho110 dose–response assay, USP25Δtip wt; format: biochemical; conditions: single replicates
T1 construct: 6xHis or thioredoxin-6xHis (N, cleaved yes); made in house; host or cells: E. coli BL21star (DE3)
T1 sequence (Q9UHP3 with tags, fused parts or gaps DEL465-477/P478G/DEL482-535/A536G/P537S limits assumed): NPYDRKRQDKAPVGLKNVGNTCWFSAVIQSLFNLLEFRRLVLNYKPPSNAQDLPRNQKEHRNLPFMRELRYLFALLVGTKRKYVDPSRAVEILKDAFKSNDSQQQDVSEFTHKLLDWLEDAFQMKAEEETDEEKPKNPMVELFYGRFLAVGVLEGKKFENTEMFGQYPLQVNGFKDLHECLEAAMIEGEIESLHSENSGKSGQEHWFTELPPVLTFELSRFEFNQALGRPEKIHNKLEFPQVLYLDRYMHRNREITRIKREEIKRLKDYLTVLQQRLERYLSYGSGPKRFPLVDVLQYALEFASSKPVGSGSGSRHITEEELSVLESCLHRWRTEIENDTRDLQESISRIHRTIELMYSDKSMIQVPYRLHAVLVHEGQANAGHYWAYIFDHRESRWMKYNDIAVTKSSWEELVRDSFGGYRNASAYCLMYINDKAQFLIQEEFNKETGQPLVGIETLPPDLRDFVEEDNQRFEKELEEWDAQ

USP25Δtip E373A = biological target: T2, USP25Δtip E373A (Homo sapiens, UniProt Q9UHP3, DEL465-537/E373A/INS464GSGSGS); test: Ub-Rho110 dose–response assay, USP25Δtip E373A; format: biochemical
T2 construct: 6xHis or thioredoxin-6xHis (N, cleaved yes); made in house; host or cells: E. coli BL21star (DE3)
T2 sequence (Q9UHP3 with tags, fused parts or gaps E373A/DEL465-477/P478G/DEL482-535/A536G/P537S limits assumed): T1 sequence (Q9UHP3 with tags, fused parts or gaps DEL465-477/P478G/DEL482-535/A536G/P537S limits assumed) with E217A

USP25fl = biological target: T3, USP25fl (Homo sapiens, UniProt Q9UHP3); test: SEC-MALS analysis of the oligomeric state of USP25fl after inhibitor incubation; conditions: for MW [kDa]: SEC-MALS molar mass of USP25-fl
T3 sequence (Q9UHP3 1-1055): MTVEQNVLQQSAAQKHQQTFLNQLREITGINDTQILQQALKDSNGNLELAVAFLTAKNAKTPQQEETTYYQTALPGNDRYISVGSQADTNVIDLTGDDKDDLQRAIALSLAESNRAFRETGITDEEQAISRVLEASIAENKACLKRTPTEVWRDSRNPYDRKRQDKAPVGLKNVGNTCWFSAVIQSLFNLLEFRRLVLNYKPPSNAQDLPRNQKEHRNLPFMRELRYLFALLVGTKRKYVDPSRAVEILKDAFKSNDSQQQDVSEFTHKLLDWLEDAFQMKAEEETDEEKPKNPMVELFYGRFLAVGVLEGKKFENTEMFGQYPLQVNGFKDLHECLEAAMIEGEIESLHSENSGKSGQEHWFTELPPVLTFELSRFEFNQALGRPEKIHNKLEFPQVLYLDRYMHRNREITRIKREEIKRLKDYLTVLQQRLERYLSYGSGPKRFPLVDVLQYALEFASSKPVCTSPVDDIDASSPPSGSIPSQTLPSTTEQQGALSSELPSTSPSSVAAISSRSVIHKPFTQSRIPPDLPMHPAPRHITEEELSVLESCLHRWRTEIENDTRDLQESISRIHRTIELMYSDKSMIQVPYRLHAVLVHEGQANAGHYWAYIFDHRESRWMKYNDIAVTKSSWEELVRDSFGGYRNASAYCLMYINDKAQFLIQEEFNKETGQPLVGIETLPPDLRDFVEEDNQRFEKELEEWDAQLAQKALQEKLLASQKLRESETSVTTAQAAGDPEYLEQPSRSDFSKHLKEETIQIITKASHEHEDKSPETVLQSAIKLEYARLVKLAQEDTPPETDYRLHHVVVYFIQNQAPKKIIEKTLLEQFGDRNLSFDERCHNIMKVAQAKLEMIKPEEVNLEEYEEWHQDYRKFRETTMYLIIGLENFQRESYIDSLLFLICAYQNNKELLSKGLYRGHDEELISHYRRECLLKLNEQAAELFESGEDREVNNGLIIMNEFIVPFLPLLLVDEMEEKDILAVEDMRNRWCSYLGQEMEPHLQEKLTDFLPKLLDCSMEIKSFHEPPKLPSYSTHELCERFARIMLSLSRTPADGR

[1] = 20 µM USP25, 60 µM inhibitor, mean of experiments
[2] = 20 µM USP25, 60 µM inhibitor, single experiments

Molecule `Cc1ccc2c(N)c(C(=O)NC3CCc4cc(N5CC6CCC(C5)N6)ccc4C3)sc2n1` (centres unmarked) [FT206] has an inhibition at 11.11 µM (USP25Δtip WT; read-out: relative inhibition [%] - USP25 - WT, inhibitor 11.11 µM) of 91.9%, an inhibition at 33.33 µM (USP25Δtip WT; read-out: relative inhibition [%] - USP25 - WT, inhibitor 33.33 µM) of 99% and an inhibition at 100 µM (USP25Δtip WT; read-out: relative inhibition [%] - USP25 - WT, inhibitor 100.00 µM) of 100%. For the same molecule, the “t-test vs. USP25 WT control - E373A” value (USP25Δtip E373A; p value, inhibitor IC50 on USP25 E373A compared with USP25 WT) was 3.888E-04, the inhibition at 11.11 µM (USP25Δtip E373A; read-out: relative inhibition [%] - USP25 - E373A, inhibitor 11.11 µM, single replicates) was 13.3% and the inhibition at 33.33 µM (USP25Δtip E373A; read-out: relative inhibition [%] - USP25 - E373A, inhibitor 33.33 µM, single replicates) was 33.6%. The inhibition at 100 µM (USP25Δtip E373A; read-out: relative inhibition [%] - USP25 - E373A, inhibitor 100.00 µM, single replicates) was 59.9%, the “avg. Mol mass (10.5-14.5 ml), mean” value (USP25fl; 20 µM USP25, 60 µM inhibitor, mean of 4 experiments) was 298.950 and the “dimer (fraction), mean” value (USP25fl; [1]) was 0.777. For the same molecule, the “tetramer (fraction), mean” value (USP25fl; [1]) was 0.223, the “avg. Mol mass (10.5-14.5 ml)” value (USP25fl; [2]) was 298.000 and 299.300 and 295.500 and 303.000 and the “dimer (fraction)” value (USP25fl; [2]) was 0.781 and 0.775 and 0.791 and 0.760. The “tetramer (fraction)” value (USP25fl; [2]) was 0.219 and 0.225 and 0.209 and 0.240, the “% dimer” value (USP25fl; 20 µM USP25fl, 60 µM inhibitor, 45 min, average of ≥3 experiments ± SD, DMSO control 26.2 ± 1.5) was 77.7 ± 1.1% and the “% tetramer” value (USP25fl; 20 µM USP25fl, 60 µM inhibitor, 45 min, average of ≥3 experiments ± SD, DMSO control 73.8 ± 1.5) was 22.3 ± 1.1%. The “Ø Mw” value (USP25fl; 20 µM USP25fl, 60 µM inhibitor, 45 min, average of ≥3 experiments ± SD, DMSO control 424.7 ± 3.8) was 299.0 ± 2.7 kDa, the “MW [kDa]” value (USP25fl; 10 µM USP25-fl + 5 µM inhibitor, elution volume V [mL] in the cell to the left) was 638.16 kDa and 634.82 kDa and 630.15 kDa and 628.44 kDa and the “MW [kDa]” value (USP25fl; 10 µM USP25-fl + 10 µM inhibitor, elution volume V [mL] in the cell to the left) was 647.07 kDa and 645.88 kDa and 640.88 kDa and 638.88 kDa. For the same molecule, the “MW [kDa]” value (USP25fl; 10 µM USP25-fl + 20 µM inhibitor, elution volume V [mL] in the cell to the left) was 747.51 kDa and 739.67 kDa and 732.41 kDa and 732.02 kDa and the dRI (USP25fl; SEC-MALS trace, 10 µM USP25-fl + 20 µM inhibitor, elution volume V [mL] in the cell to the left) was 3.84E-07 and 3.46E-07 and 3.10E-07 and 2.78E-07.
